System: E. coli
Experiment: MIC of imipenem, ertapenem and meropenem
Type: cell-based, Escherichia coli

Question: For `C[C@@H](O)[C@H]1C(=O)N2C(C(=O)O)=C(SCCN=CN)C[C@H]12` [IPM, imipenem], which MIC (E. coli 1008 (TEM-1 + CTX-M-1)) is on record?
Answer: 0.19 µg/mL

Question: And the MIC (E. coli 1008, CTX-M-1 + TEM-1, non-carbapenemase producer)?
Answer: 0.19 µg/mL

Question: And the MIC (E. coli 1020, CTX-M-1 + TEM-1, non-carbapenemase producer)?
Answer: 0.19 µg/mL

Question: What about the MIC (E. coli 1023, CTX-M-2 + TEM-1, non-carbapenemase producer) of the same molecule?
Answer: 0.12 µg/mL

Question: And the MIC (E. coli 1033, CTX-M-15, non-carbapenemase producer)?
Answer: 0.19 µg/mL

Question: What about the MIC (E. coli 1034 (TEM-1 + SHV-38)) of the same molecule?
Answer: 0.19 µg/mL

Question: What about the MIC (E. coli 1034, TEM-1 + SHV-38, non-carbapenemase producer) of the same molecule?
Answer: 0.19 µg/mL

Question: And the MIC (E. coli 1048 (TEM-1 + SHV-2a))?
Answer: 0.19 µg/mL

Question: And the MIC (E. coli 1048, TEM-1 + SHV-2a, non-carbapenemase producer)?
Answer: 0.19 µg/mL

Question: What about the MIC (E. coli 1082 (TEM-1)) of the same molecule?
Answer: 0.19 µg/mL

Question: And the MIC (E. coli 1082, TEM-1, non-carbapenemase producer)?
Answer: 0.19 µg/mL

Question: And the MIC (E. coli 1092 (OXA-1))?
Answer: 0.12 µg/mL

Question: What about the MIC (E. coli 1092, OXA-1, non-carbapenemase producer) of the same molecule?
Answer: 0.12 µg/mL

Question: What about the MIC (E. coli 6252, (wild type), non-carbapenemase producer) of the same molecule?
Answer: 0.12 µg/mL

Question: What about the MIC (E. coli 6367 (wild type)) of the same molecule?
Answer: 0.19 µg/mL

Question: And the MIC (E. coli 6367, (wild type), non-carbapenemase producer)?
Answer: 0.19 µg/mL

Question: And the MIC (E. coli 10121 (CTX-M-2))?
Answer: 0.19 µg/mL

Question: What about the MIC (E. coli 10121, CTX-M-2, non-carbapenemase producer) of the same molecule?
Answer: 0.19 µg/mL

Question: And the MIC (E. coli 10122, CTX-M-1 + TEM-1, non-carbapenemase producer)?
Answer: 0.19 µg/mL

Question: What about the MIC (E. coli 0404018, VIM-1+ CMY-6) of the same molecule?
Answer: 3 µg/mL

Question: What about the MIC (E. coli 1008077, VIM-1+ TEM-1 + CTX-M-15) of the same molecule?
Answer: >32 µg/mL

Question: What about the MIC (E. coli 1108013, IMP-1 + TEM-1) of the same molecule?
Answer: 0.5 µg/mL

Question: And the MIC (E. coli ALL (NDM-1 + OXA-1 + OXA-2 + CTX-M-15 + TEM-1))?
Answer: 4 µg/mL

Question: And the MIC (E. coli ALL, NDM-1 + TEM-1 + CTX-M-15 + OXA-1 + OXA-2)?
Answer: 4 µg/mL

Question: And the MIC (E. coli AME (OXA-48 + CTX-M-24))?
Answer: 0.25 µg/mL

Question: And the MIC (E. coli AME, OXA-48 + CTX-M-24)?
Answer: 0.25 µg/mL

Question: And the MIC (E. coli AUS (NDM-1 + CTX-M-15 + TEM-1))?
Answer: 6 µg/mL

Question: What about the MIC (E. coli AUS, NDM-1 + TEM-1 + CTX-M-15) of the same molecule?
Answer: 6 µg/mL

Question: What about the MIC (E. coli BER (OXA-48 + CTX-M-15)) of the same molecule?
Answer: 0.38 µg/mL

Question: And the MIC (E. coli BER, OXA-48 + TEM-1 + CTX-M-15)?
Answer: 0.38 µg/mL

Question: And the MIC (E. coli BOK (OXA-48 + CTX-M-15))?
Answer: 0.25 µg/mL

Question: And the MIC (E. coli BOK, OXA-48 + CTX-M-15)?
Answer: 0.25 µg/mL

Question: What about the MIC (E. coli BON (OXA-48 + CTX-M-24 + TEM-1)) of the same molecule?
Answer: 0.38 µg/mL

Question: And the MIC (E. coli BON, OXA-48 + TEM-1 + CTX-M-24)?
Answer: 0.38 µg/mL

Question: And the MIC (E. coli BOU (OXA-48 + CTX-M-15))?
Answer: 0.5 µg/mL

Question: What about the MIC (E. coli BOU, OXA-48 + CTX-M-15) of the same molecule?
Answer: 0.5 µg/mL

Question: And the MIC (E. coli COL (KPC-2))?
Answer: 4 µg/mL

Question: And the MIC (E. coli COL, KPC-2 + TEM-1 + CTX-M-9)?
Answer: 4 µg/mL

Question: What about the MIC (E. coli DIH (VIM-19)) of the same molecule?
Answer: 8 µg/mL

Question: And the MIC (E. coli DIH, VIM-19)?
Answer: 8 µg/mL

Question: And the MIC (E. coli DIN, KPC-2 + TEM-1 + OXA-1)?
Answer: 1 µg/mL

Question: What about the MIC (E. coli E14 (CTX-M-14)) of the same molecule?
Answer: 0.12 µg/mL

Question: What about the MIC (E. coli E14, CTX-M-14, non-carbapenemase producer) of the same molecule?
Answer: 0.12 µg/mL

Question: And the MIC (E. coli ECA (ACC-1))?
Answer: 0.12 µg/mL

Question: And the MIC (E. coli ECA, ACC-1, non-carbapenemase producer)?
Answer: 0.12 µg/mL

Question: And the MIC (E. coli EVB (VEB-1))?
Answer: 0.12 µg/mL

Question: And the MIC (E. coli EVB, VEB-1, non-carbapenemase producer)?
Answer: 0.12 µg/mL

Question: And the MIC (E. coli FOR (CTX-M-15))?
Answer: 0.12 µg/mL

Question: What about the MIC (E. coli FOR, CTX-M-15, non-carbapenemase producer) of the same molecule?
Answer: 0.12 µg/mL

Question: What about the MIC (E. coli GEN (NDM-1 + OXA-1 + CMY-30 + TEM-1)) of the same molecule?
Answer: 8 µg/mL

Question: What about the MIC (E. coli GEN, NDM-1 + TEM-1 + CMY-30 + OXA-1) of the same molecule?
Answer: 8 µg/mL

Question: What about the MIC (E. coli GOG (OXA-48 + CTX-M-24)) of the same molecule?
Answer: 0.5 µg/mL

Question: And the MIC (E. coli GUE (NDM-1 + OXA-1 + TEM-1))?
Answer: 3 µg/mL

Question: And the MIC (E. coli GUE, NDM-1 + TEM-1 + OXA-1)?
Answer: 3 µg/mL

Question: And the MIC (E. coli HAN (OXA-48 + CTX-M-15))?
Answer: 3 µg/mL

Question: What about the MIC (E. coli HAN, OXA-48 + CTX-M-15) of the same molecule?
Answer: 3 µg/mL

Question: What about the MIC (E. coli HB4 (OmpC-, OmpF-)) of the same molecule?
Answer: 0.12 µg/mL

Question: And the MIC (E. coli HB4, (OmpC-, OmpF-), non-carbapenemase producer, porin deficiency)?
Answer: 0.12 µg/mL

Question: And the MIC (E. coli IR5 (NDM-1 + CTX-M-15 + TEM-1))?
Answer: 16 µg/mL

Question: What about the MIC (E. coli IR5, NDM-1 + TEM-1 + CTX-M-15) of the same molecule?
Answer: 16 µg/mL

Question: And the MIC (E. coli JAP (IMP-1))?
Answer: 0.5 µg/mL

Question: What about the MIC (E. coli JAP, IMP-1) of the same molecule?
Answer: 0.5 µg/mL

Question: And the MIC (E. coli LIL, KPC-2 + TEM-1 + OXA-9)?
Answer: 2 µg/mL

Question: And the MIC (E. coli MAD (VIM-1 + CTX-M-3))?
Answer: 1.5 µg/mL

Question: And the MIC (E. coli MAD, VIM-1+ CTX-M-3)?
Answer: 1.5 µg/mL

Question: And the MIC (E. coli MAR (Overexpressed AmpC))?
Answer: 16 µg/mL

Question: What about the MIC (E. coli MAR, Overexpressed AmpC, non-carbapenemase producer) of the same molecule?
Answer: 16 µg/mL

Question: What about the MIC (E. coli MET (Chromosome-encoded extended-spectrum cephalosporinase)) of the same molecule?
Answer: 0.12 µg/mL

Question: What about the MIC (E. coli MET, Chromosome-encoded extended-spectrum cephalosporinase, non-carbapenemase producer) of the same molecule?
Answer: 0.12 µg/mL

Question: What about the MIC (E. coli NAA (OXA-48 + CTX-M-24)) of the same molecule?
Answer: 0.5 µg/mL

Question: And the MIC (E. coli OM3, OXA-48 + TEM-1 + CTX-M-15)?
Answer: 0.5 µg/mL

Question: What about the MIC (E. coli OM20, NDM-1 + TEM-1 + CTX-M-15) of the same molecule?
Answer: 2 µg/mL

Question: What about the MIC (E. coli OM22, OXA-48 + TEM-1 + CTX-M-15) of the same molecule?
Answer: 0.5 µg/mL

Question: What about the MIC (E. coli PSP (KPC-2)) of the same molecule?
Answer: 0.5 µg/mL

Question: What about the MIC (E. coli PSP, KPC-2 + TEM-1 + OXA-1) of the same molecule?
Answer: 0.5 µg/mL

Question: And the MIC (E. coli RIC (NDM-1 + OXA-1 + OXA-10 + CMY-16))?
Answer: 1 µg/mL

Question: What about the MIC (E. coli RIC, NDM-1 + CMY-16 + OXA-1 + OXA-10) of the same molecule?
Answer: 1 µg/mL

Question: And the MIC (E. coli ROB (OXA-48))?
Answer: 0.5 µg/mL

Question: And the MIC (E. coli ROB, OXA-48)?
Answer: 0.5 µg/mL

Question: What about the MIC (E. coli SYD (CMY-2)) of the same molecule?
Answer: 0.12 µg/mL

Question: What about the MIC (E. coli SYD, CMY-2, non-carbapenemase producer) of the same molecule?
Answer: 0.12 µg/mL

Question: What about the MIC (E. coli TWA, IMP-8 + SHV-12) of the same molecule?
Answer: 6 µg/mL

Question: What about the MIC (E. coli ZAN, OXA-48 + TEM-1 + CTX-M-14) of the same molecule?
Answer: 0.38 µg/mL

Question: And the MIC (strain E. coli 1008, TEM-1 + CTX-M-1, non-carbapenemase producer)?
Answer: 0.19 µg/mL

— patent US9328374B2, “Selective culture medium and method for detecting carbapenem-resistant bacteria in a test sample” (Institut National de la Sante et de la Recherche Medicale …, priority 2011, dated 2016)
